Data on 89 compounds can be found in a melting point compilation (Tetko et al.; mined from patent text by program, amines drawn as free bases though some values may be those of a salt).

Each structure is given as a SMILES string.

One may read the melting point as the temperature of the solid-liquid transition. `NC(=O)N1CCCC(=O)c2ccc(Cl)cc2CCC1=O`: the melting point was 182 to 184 °C.
In turn, `O=C(NCC1CCCC1)NCC1CCCC1` gave a melting point of 162 to 164 °C.
For `Cc1cnc(N2CCN(CC[C@H]3CC[C@H](NC(=O)CC4CCOCC4)CC3)CC2)c2c1OCC2` the value was 199 °C; for `Cc1ccsc1C(=O)Cc1ccc(C(F)(F)F)cc1[N+](=O)[O-]`, 120 to 122 °C; for `Cc1nc(S(=O)(=O)n2ccc(/C=C/C(=O)NO)c2)cn1C`, 190 to 194 °C.
With `COc1ccccc1C1=Nc2ccc(N3CCCC3)cc2C(=O)C1` the figure was 312 to 313 °C.
Consider `NS(=O)(=O)c1ccccc1-c1cnoc1`, for which the melting point is 165 to 167 °C.
With `COc1ccc(C=C(c2ccc(OC)cc2)N(C)C)cc1` the figure was 67 to 69 °C; with `CCOC(=O)C1Oc2ccc(Cl)cc2C(C)(c2ccccc2)O1` (centres undefined), 92 °C; with `N#CNC(=S)Nc1ccc(Cl)cc1`, more than 250 °C.
The compound `COC(=O)Nc1nc2ccccc2n1C(=O)NCC1(C)CC(NC(=O)n2c(NC(=O)OC)nc3ccccc32)CC(C)(C)C1` (centres undefined) displayed a melting point of 82 to 83 °C.
As to `CCn1ncc2c1ncc1c(=O)[nH]c3nc(S(C)=O)nn3c12` (centres undefined), the melting point is more than 300 °C.
`CCN1c2ncc(CCc3ccnc(O)c3)cc2C(=O)N(C)c2ccc(Cl)nc21` returned a melting point of 243 to 244 °C.
With `COC(=O)[C@@H]1Cc2ccccc2N1C(=O)[C@H](CC(=O)OCc1ccccc1)NC(=O)C(F)(F)F` the figure was 88 to 90 °C.
For `Cc1cccc(N(C=C(C#N)C#N)N=C(C#N)C#N)c1` the value was 157 to 159 °C; for `Cc1cccc(Nc2n[nH]c(N=CN(C)C)c2C#N)c1`, 260 to 261 °C; for `O=C(OCCCc1ccc(OCc2ccc(Cl)cc2)cc1)c1cccnc1`, 109 to 110 °C.
For `O=C1c2cc(O)ccc2OCC1Cc1c[nH]c2ccccc12` (centres undefined) the value was 188 to 190 °C.
Regarding `FC(F)(F)C(F)(F)Oc1ccc(-c2nnco2)cc1`, the melting point is 87 to 89 °C.
With `OCc1ccccc1-c1cc(-c2ccccc2)on1` the figure was 68 to 70 °C.
For `CCC(O)(CC(=O)OC(C)(C)C)c1ccn(Cc2cc3cc(OCc4ccccc4)c(F)cc3nc2I)c(=O)c1` (centres undefined) the value was 174 °C.
With `O=C1N(c2ccccc2)CCN1C1CCN(Cc2ccccc2)CC1` the figure was 168 to 170 °C; with `COC(=O)C1=C(C)NC(C)=C(C(=O)OCCCCCCOc2cc(-c3ccccc3)[nH]n2)C1c1cccc(Cl)c1Cl` (centres undefined), 68 to 71 °C.
The compound `COc1ccc(C(=O)NC(=O)Nc2cc3c(cc2F)/C(=C/c2ccc[nH]2)C(=O)N3)cc1` had a melting point of 290 to 295 °C.
With `NC(CCNc1ccc(C(O)(C(F)(F)F)C(F)(F)F)cc1)c1ccc(F)cc1` (centres undefined) the figure was 136 to 137 °C.
Compound `CCCCCCCNC(=O)Nc1ccccc1C(=O)NCCCC1CCN(C(c2ccccc2)c2ccccc2)CC1` gave a melting point of 123 to 124 °C.
The compound `CC(C)Oc1cccc(-c2ccc3cnc(Nc4ccc(C5CCN(CC(N)=O)CC5)cc4)nn23)c1` had a melting point of 233 to 235 °C.
The compound `CCCCCS(=O)(=O)NC(=O)CCCc1ccc(OCCOC)cc1Oc1ncc(C(F)(F)F)cc1Cl` registered a melting point of 96 to 97 °C.
With `COc1c(Cl)ccc(-c2cc(N)c(Cl)c(C(=O)NOC3CCCO3)n2)c1F` (centres undefined) the figure was 180 to 183 °C.
With `Cc1cccc(C2=CCN(CCCn3c(=O)[nH]c4cccc(C)c4c3=O)CC2)c1` the figure was 155 to 160 °C; with `COc1cccc2c(=O)n(/C=C/C(=O)O)cnc12`, 289 to 291 °C.
For `CC(C)N1C(=O)CCCc2cc(Nc3ncc(Cl)c(N[C@@H]4CCCC[C@H]4NS(C)(=O)=O)n3)ccc21` the value was 141 to 143 °C; for `C[C@H](NC(=O)OC(C)(C)C)C(=O)N(CC(=O)N1CCC[C@H]1C(=O)OCc1ccccc1)C1Cc2ccccc2C1`, 135 to 136 °C.
Compound `CC(=O)c1ccc(NC2=Nc3ccc(Cl)cc3CS2)cc1` had a melting point of 174 to 175 °C.
For `Cc1cc(C)cc(C(=O)N2CCC(=O)CC2Cc2ccccc2)c1` (centres undefined) the value was 108 °C; for `CCN(CC)CCOC(=O)c1cnc2ccn(-c3ccccc3)n2c1=O`, 127 to 130 °C; for `Cc1cc2cc(P(=O)(O)O)c(=O)[nH]c2cc1C`, more than 300 °C.
`COc1nc(NC(=O)NS(=O)(=O)c2ccccc2CCC(F)(F)F)nc(OC)n1` came in with a melting point of 177 to 178 °C.
`O=C(NCCN1CCCC1)c1ccc(OCc2ccc(-c3ccccc3)cc2)nc1` gave a melting point of 153 to 157 °C.
`Oc1cccc(OCCn2ccnc2)c1` had a melting point of 125 to 127 °C.
With `COC(=O)c1cccc2c([N+](=O)[O-])cccc12` the figure was 105 °C; with `CSc1cc(C)nc(SC)c1NC(=O)CCCCCSc1nc2ncccc2o1`, 132 to 133 °C; with `CCC1(C(=O)Nc2ccc(OC)cc2)CCCCC1C` (centres undefined), 107 °C.
With `C=CCOc1ccccc1[N+](=O)[O-]` the figure was 70 to 72 °C; with `COc1ccc(N2CCN(c3ccc(NC4=NCC(OC)S4)cc3)CC2)cc1` (centres undefined), 178 °C.
For `COc1ccc2c(c1[N+](=O)[O-])C(=O)CC2` the value was 155 to 158 °C; for `C(=C\c1nc2ccccc2n1-c1ccccn1)/c1cccs1`, 130 to 131 °C.
Take `Fc1cccc(F)c1-c1nc2c(s1)NCCCC2`: the melting point was 143 to 144 °C.
`CC(=S)Nc1ccc[nH]1` came in with a melting point of 93 to 94 °C.
The compound `CC(=O)Oc1c(Cl)ccc2c(-c3ccccc3)c(Sc3ccccc3)c(Sc3ccccc3)c(-c3ccccc3)c12` displayed a melting point of 138 to 140 °C.
For `CONS(=O)(=O)c1cc(Cl)c(Cl)cc1Cl` the value was 163 to 166 °C; for `N#Cc1ccc(OCc2ccc(F)cc2)cc1`, 82 to 83 °C.
On to `O=C(NCCCCCCCCn1ccnc1)c1ccc(Cl)nc1`, for which the melting point was in the range of 79 to 81 °C.
With `N=C(N)NOCc1ccccc1` the figure was 104 to 105 °C.
With `Cc1ccc2c(=O)c(C(=O)O)cn(N)c2n1` the figure was 239 to 240 °C.
As for `CCOC(=O)c1sc(-c2ccc(C(F)(F)F)cc2)nc1COC(C)=O`, the melting point turned out to be 82 °C.
With `CCCc1c(OCCC(=O)O)ccc(C(C)=O)c1O` the figure was 142 to 146 °C.
With `COc1cc(OC)c2c(c1)OC(C)(C)CC2NNc1ncnc2c1ncn2C1OC(CO)C(O)C1O` (centres undefined) the figure was 111 to 113 °C; with `Fc1cccc(C2=NOCCS2)c1`, 47 to 49 °C.
Consider `N=C(N)c1ccc(N2CC(CN3CCCC(C(=O)O)C3)OC2=O)cc1` (centres undefined), for which the melting point amounted to 198 °C.
With `O=C(O)C1(c2ccc3c(c2)CCCC3)CCC1` the figure was 123 to 126 °C; with `COc1ccc(CN2C(=O)C(C)(c3cc(COCCO)ccc3Cl)c3cc(Cl)ccc32)c(OC)c1` (centres undefined), 53 °C; with `O=C1N[C@H]2[C@H](O)[C@H](O)[C@@H](O)[C@H](CO)[C@@H]2c2cc3c(cc21)OCO3`, more than 200 °C.
With `CCCCCCCCCCCCCCCCCC(=O)c1ccc(OC)c(C(=O)OC)c1` the figure was 73 to 74 °C.
The compound `CCCCN1CCC(C(=O)O)(S(=O)(=O)c2ccc(Oc3ccc(Cl)cc3)cc2)CC1` came in with a melting point of 201 °C.
In the case of `O=C(c1ccc(Br)cc1)c1ccc(N2CCOCC2)cc1`, the melting point fell in the range of 178 to 179 °C.
With `COc1ccc(S(=O)(=O)Oc2cccc(OS(=O)(=O)c3ccc(OC)cc3)c2)cc1` the figure was 81 to 84 °C; with `C=CCn1[nH]c2cc(OC)ccc2c1=O`, 126 °C.
For `Cc1ccc(C(CC(=O)O)C(=O)O)s1` (centres undefined) the value was 186 to 188 °C; for `Cc1nc(-c2cccc(Cl)c2)c(CCC(=O)O)o1`, 159 to 160 °C; for `O=S(=O)(O)c1ccc(N(Cc2ccc(F)cc2)Cc2ccc(Cl)cc2)cc1`, more than 250 °C.
With `COC(=O)C1CCC2C3CCC4CC(OC(C)=O)C(OC)CC4(C)C3C(NC3CCCCC3)CC12C` (centres undefined) the figure was 87 to 89 °C; with `CN1Cc2cccc(S(N)(=O)=O)c2S1(=O)=O`, 195 to 197 °C; with `Cn1cncc1C(O)(c1ccc(Cl)cc1)c1ccc2nc(C=CC(N)=O)cc(-c3cccc(Cl)c3)c2c1` (centres undefined), 80 °C.
With `CCN1C(=O)C(=C2C=C(N3CCCC3)CC(C)(C)C2)SC1=S`, the melting point is 234 to 235 °C.
In turn, `CCOC(=O)C1=C(C)N2CCNC2=C(C(=O)OCC)C1c1cccc(C(=O)OCC)c1` (centres undefined) registered a melting point of 149 °C.
For `CCc1nnc(Cc2ccc(NC(=O)/C=C/c3cnn(C)c3-c3ccc(F)cc3)cc2)o1` the value was 164 to 165 °C; for `O=C(O)c1cc(N2C(=O)CCC2=O)cc([N+](=O)[O-])c1`, 285 to 290 °C.
Consider `O=C(O)c1cccn2c(=O)c3c(nc12)CCC3`, for which the melting point is 189 to 193 °C.
With `NSc1ccc([N+](=O)[O-])cc1C(Cl)(Cl)Cl` the figure was 105 °C; with `O=C1NC(=O)C(Cc2ccc(OCCON=Cc3ccc(-c4ccccc4)cc3)cc2)S1` (centres undefined), 124 to 127 °C.
As for `c1ccc(C2CC(Cc3ccncc3)(Cc3ccncc3)c3ccccc32)cc1` (centres undefined), the melting point was 210 to 225 °C.
With `BrCc1ccc2nc(-c3ccccc3)c(-c3ccccc3)nc2c1` the figure was 146 to 148 °C.
For `Fc1ccc(-c2nc3ccccn3c2-c2ccnc(-c3ccc(CN4CCCC4)cc3)c2)cc1F` the value was 155 °C.
The compound `COc1ccc2c(c1)OC(CNCCCOc1ccc3cccnc3c1)CO2` (centres undefined) displayed a melting point of 135 to 142 °C.
For `CC(=O)O[C@@](Cn1cncn1)(c1ccc(F)cc1F)[C@@H](C)S(=O)(=O)Cl` the value was 110 to 115 °C; for `Cc1noc(NS(=O)(=O)c2ccccc2-c2ccc(-c3ncco3)cc2-c2ncco2)c1C`, 108 to 113 °C; for `Cc1cccc(NC(=O)NCC(=O)N(CC(=O)N2CCc3ccccc3C2)c2ccccc2)c1`, 135 °C.
With `O=C(O)c1ccnc(-c2ccc3c(c2)C(c2ccc(Cl)cc2Cl)CC3)c1` (centres undefined) the figure was 205 to 206 °C.
